In PubChem BioAssay (NCI):
Several values for one entry are separate records, joined by “and”; a condition that tells them apart may be missing. Equal entries are not always repeated.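 How tested: cells in 96-well plates exposed to compound for 48 hours at five concentrations. The concentration for 50% growth inhibition is given as GI50. TGI marks complete inhibition of growth.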

System: MOLT-4 leukemia
Assay: NCI tumour cell line growth inhibition, 48 h

| SMILES | TGI | GI50 |
| --- | --- | --- |
| O=S1(=O)OCCOS(=O)(=O)C1Cl | > 100 µM |  |
| COc1cc(C2C(C(=O)Nc3cc(F)c(F)cc3F)=C(C)NC(C)=C2C(=O)Nc2cc(F)c(F)cc2F)ccc1O | 45.2 µM |  |
| Nc1ccc2nc3n(c2c1)C(=O)c1ccccc1-3 | > 100 µM |  |
| O=c1nc(-c2ccccc2)cc(-c2ccccc2O)[nH]1 | > 100 µM |  |
| Oc1ccc(Br)cc1C=Nc1ccc(N=Cc2cc(Br)ccc2O)cc1 | > 100 µM |  |
| CCOc1ccccc1NC(=O)C(=O)Cc1nc2ccccc2s1 | > 100 µM |  |
| C=CCn1c2c(sc1=S)C(S)N=CN2 (configuration not stated) | > 100 µM |  |
| Cc1cccc(N=C2NC(=O)C(CC(=O)Nc3cccc(C)c3C)S2)c1 (configuration not stated) | > 100 µM |  |
| CN(C)CCSc1nccc(-c2cc3ccccc3s2)n1 | 66.1 µM |  |
| O=C(O)CSc1n[nH]c(Cc2ccccc2)n1 | > 100 µM |  |
| O=C1C(Cl)=C(Nc2ccccc2O)C(=O)N1Cc1ccccc1 | > 100 µM | 19.6 µM |
| CCOc1ccccc1NC(=O)C(C#N)C1=C(Cl)C(=O)c2ccccc2C1=O (configuration not stated) | 3.32 µM |  |

System: NCI-H23 lung
Assay: NCI tumour cell line growth inhibition, 48 h

| SMILES | TGI | GI50 |
| --- | --- | --- |
| Nc1ccc2[nH]cc(CCC(=O)O)c2c1 | > 100 µM |  |
| OCC(O)CNc1ccnc2cc(Cl)ccc12 (configuration not stated) | > 100 µM |  |
| Cc1cccc(C(C)C)c1NC(=O)C(=O)C(C(=O)c1ccccc1F)C1OC(=O)c2ccccc21 (configuration not stated) | 40.6 µM |  |
| Cc1cccc(C)c1NC(=O)C(=O)CC(=O)c1cccc([N+](=O)[O-])c1 | > 100 µM |  |
| Cc1ccc(S(=O)(=O)NC(=O)NC2=NC(C)(C)N(c3ccc(Cl)c(Cl)c3)C(N)=N2)cc1 | > 100 µM |  |
| CC1=C(c2cc(C(=O)Nc3ccc(Cl)cc3)nc(=S)[nH]2)Sc2ccccc2N1 | > 100 µM |  |
| O=C(O)CN(c1ccccc1)S(=O)(=O)c1ccc([N+](=O)[O-])cc1 | > 100 µM |  |
| CC1=C(C(=O)NNS(=O)(=O)c2ccc(C)cc2)CC(C(=O)NNS(=O)(=O)c2ccc(C)cc2)=C(C)N1 | > 100 µM |  |
| [F][Sn]([F])([c]1ccccc1)[c]1ccccc1 | 3.7 µM | 1.85 µM |
| N#CC(C(=O)CCC(=O)Nc1cccc(C(F)(F)F)c1)c1ccc(Cl)cc1 (configuration not stated) | > 100 µM |  |
| Cc1cc(C(C)(C)C)cc(Cc2cc(C(C)(C)C)cc(Cc3cc(C(C)(C)C)cc(C)c3O)c2O)c1O | 21.7 µM |  |
| COC(=O)/C(=C\c1ccc(N(CCC#N)CCC#N)cc1)NC(=O)c1cc([N+](=O)[O-])ccc1Cl | > 100 µM |  |
| COC1=C(Br)C(=O)c2nc(C)ccc2C1=O | 27 µM |  |
| C/C(CCn1[nH]c(=O)ccc1=O)=N\OCCCc1ccccc1 | > 100 µM |  |
| COC(=O)c1cccc2cccc(C(=O)Nc3ccc(Cl)cc3)c12 | > 100 µM |  |
| Nc1nc(N)c2cc(CNc3ccc(C(=O)NC(CC(=O)O)C(=O)O)c(Cl)c3)ccc2n1 (configuration not stated) | 64 µM and 491 µM | 0.05 µM |
| N.N.NCCCCCCCCCN.O=C([O-])CC(=O)[O-].O=C([O-])CC(=O)[O-].[Pt+4].[Pt+4] | > 100 µM | > 100 µM |
| CC(=O)OC1C2CCC1C1C2C2(Cl)C(Cl)=C(Cl)C1(Cl)C2(Cl)Cl (configuration not stated) | 25.8 µM |  |
| CC(C(=O)n1c2ccccc2c2ccccc21)N(c1ccccc1)c1ccccc1 (configuration not stated) | 34.6 µM |  |
| CCOC(=O)Cn1c(=O)n(C)c(=O)c2c1ncn2Cc1ccccc1 | > 100 µM |  |

| SMILES | TGI | GI50 |
| --- | --- | --- |
| CCCCc1c2c(nc3c1CCC/C3=C\c1ccccc1)/C(=C/c1ccccc1)CCC2 | > 100 µM |  |
| CC(C)(C)OC(=O)N1N=NC2C1C1CC(OCc3ccccc3)(OCc3ccccc3)C2O1 (configuration not stated) | 49.2 µM |  |
| CC(O)CC(O)(C(F)(F)F)C(F)(F)F (configuration not stated) | > 10 µM |  |
| CC1=CC(=O)C(C(O)(C(F)(F)F)C(F)(F)F)C(C)(C)C1 (configuration not stated) | > 10 µM |  |
| O=C1C(=O)N(c2cc(Cl)ccc2Cl)C(=O)C(=O)C1c1nc2ccccc2o1 | > 100 µM |  |
| O=C(O)C12CC3(C(=O)O)CC(C(=O)O)(CC(C(=O)O)(C1)C3=O)C2=O | > 100 µM |  |
| O=c1c2ccccc2nc(-c2ccccc2)n1NC(=S)Nc1ccccc1 | > 100 µM |  |
| CCOC(=O)/C(=C/c1cccc(C#N)c1)N(CC)CC | > 100 µM |  |
| C=CCN1CC2CON(C(=O)C(OC)(c3ccccc3)C(F)(F)F)C2C1C(C)C (configuration not stated) |  | 37.4 mg/L |
| O=S1(=O)OCCOS(=O)(=O)C1Cl | > 100 µM |  |
| COc1cc(C2C(C(=O)Nc3cc(F)c(F)cc3F)=C(C)NC(C)=C2C(=O)Nc2cc(F)c(F)cc2F)ccc1O | 52.8 µM |  |
| Nc1ccc2nc3n(c2c1)C(=O)c1ccccc1-3 | > 100 µM |  |
| O=c1nc(-c2ccccc2)cc(-c2ccccc2O)[nH]1 | > 100 µM |  |
| Oc1ccc(Br)cc1C=Nc1ccc(N=Cc2cc(Br)ccc2O)cc1 | > 100 µM |  |
| CCOc1ccccc1NC(=O)C(=O)Cc1nc2ccccc2s1 | > 100 µM |  |
| C=CCn1c2c(sc1=S)C(S)N=CN2 (configuration not stated) | > 100 µM |  |
| Cc1cccc(N=C2NC(=O)C(CC(=O)Nc3cccc(C)c3C)S2)c1 (configuration not stated) | > 100 µM |  |
| O=C(O)CSc1n[nH]c(Cc2ccccc2)n1 | > 100 µM |  |
| O=C1C(Cl)=C(Nc2ccccc2O)C(=O)N1Cc1ccccc1 | 31.7 µM | 17.9 µM |
| CCOc1ccccc1NC(=O)C(C#N)C1=C(Cl)C(=O)c2ccccc2C1=O (configuration not stated) | 3.99 µM and 6.17 µM |  |

System: TK-10 renal
Assay: NCI tumour cell line growth inhibition, 48 h

| SMILES | GI50 | TGI |
| --- | --- | --- |
| CN1CCN(c2ccc(Nc3ncc4cc(C#N)c(=O)n(C5CCCC5)c4n3)cc2)CC1 | 0.82 µM | > 24.2 µM |
| Nc1ccc2[nH]cc(CCC(=O)O)c2c1 |  | > 100 µM |
| OCC(O)CNc1ccnc2cc(Cl)ccc12 (configuration not stated) |  | > 100 µM |
| Cc1cccc(C(C)C)c1NC(=O)C(=O)C(C(=O)c1ccccc1F)C1OC(=O)c2ccccc21 (configuration not stated) |  | 91.1 µM |
| Cc1cccc(C)c1NC(=O)C(=O)CC(=O)c1cccc([N+](=O)[O-])c1 |  | > 100 µM |
| Cc1ccc(S(=O)(=O)NC(=O)NC2=NC(C)(C)N(c3ccc(Cl)c(Cl)c3)C(N)=N2)cc1 |  | > 100 µM |
| CC1=C(c2cc(C(=O)Nc3ccc(Cl)cc3)nc(=S)[nH]2)Sc2ccccc2N1 |  | > 100 µM |
| O=C(O)CN(c1ccccc1)S(=O)(=O)c1ccc([N+](=O)[O-])cc1 |  | > 100 µM |
| CC1=C(C(=O)NNS(=O)(=O)c2ccc(C)cc2)CC(C(=O)NNS(=O)(=O)c2ccc(C)cc2)=C(C)N1 |  | > 100 µM |
| Clc1cc(Cl)cc(Nc2ccc3cc(OCCCN4CCOCC4)ccc3n2)c1 | 2.88 µM | 8.21 µM |
| [F][Sn]([F])([c]1ccccc1)[c]1ccccc1 | 1.89 µM | 3.44 µM |
| N#CC(C(=O)CCC(=O)Nc1cccc(C(F)(F)F)c1)c1ccc(Cl)cc1 (configuration not stated) |  | > 100 µM |
| Cc1cc(C(C)(C)C)cc(Cc2cc(C(C)(C)C)cc(Cc3cc(C(C)(C)C)cc(C)c3O)c2O)c1O |  | 30 µM |
| COC(=O)/C(=C\c1ccc(N(CCC#N)CCC#N)cc1)NC(=O)c1cc([N+](=O)[O-])ccc1Cl |  | > 100 µM |
| COC1=C(Br)C(=O)c2nc(C)ccc2C1=O |  | 32.4 µM |
| C/C(CCn1[nH]c(=O)ccc1=O)=N\OCCCc1ccccc1 |  | > 100 µM |
| COC(=O)c1cccc2cccc(C(=O)Nc3ccc(Cl)cc3)c12 |  | > 100 µM |
| Nc1nc(N)c2cc(CNc3ccc(C(=O)NC(CC(=O)O)C(=O)O)c(Cl)c3)ccc2n1 (configuration not stated) | > 500 µM | > 500 µM |
| N.N.NCCCCCCCCCN.O=C([O-])CC(=O)[O-].O=C([O-])CC(=O)[O-].[Pt+4].[Pt+4] | > 100 µM | > 100 µM |
| CC(=O)OC1C2CCC1C1C2C2(Cl)C(Cl)=C(Cl)C1(Cl)C2(Cl)Cl (configuration not stated) |  | 28.8 µM |
| CC(C(=O)n1c2ccccc2c2ccccc21)N(c1ccccc1)c1ccccc1 (configuration not stated) |  | 34.5 µM |

| SMILES | GI50 | TGI |
| --- | --- | --- |
| CCOC(=O)Cn1c(=O)n(C)c(=O)c2c1ncn2Cc1ccccc1 |  | > 100 µM |
| CCCCc1c2c(nc3c1CCC/C3=C\c1ccccc1)/C(=C/c1ccccc1)CCC2 |  | > 100 µM |
| CC(O)CC(O)(C(F)(F)F)C(F)(F)F (configuration not stated) |  | > 10 µM |
| O=C1CSC(c2ccc(-c3nc4ccccc4s3)cc2)=N1 | 17.5 µM | 65.1 µM |
| CC1=CC(=O)C(C(O)(C(F)(F)F)C(F)(F)F)C(C)(C)C1 (configuration not stated) |  | > 10 µM |
| O=C1C(=O)N(c2cc(Cl)ccc2Cl)C(=O)C(=O)C1c1nc2ccccc2o1 |  | > 100 µM |
| O=C(O)C12CC3(C(=O)O)CC(C(=O)O)(CC(C(=O)O)(C1)C3=O)C2=O |  | > 100 µM |
| O=c1c2ccccc2nc(-c2ccccc2)n1NC(=S)Nc1ccccc1 |  | > 100 µM |
| CCOC(=O)/C(=C/c1cccc(C#N)c1)N(CC)CC |  | > 100 µM |
| C=CCN1CC2CON(C(=O)C(OC)(c3ccccc3)C(F)(F)F)C2C1C(C)C (configuration not stated) | 99.3 mg/L |  |
| O=S1(=O)OCCOS(=O)(=O)C1Cl |  | > 100 µM |
| COc1cc(C2C(C(=O)Nc3cc(F)c(F)cc3F)=C(C)NC(C)=C2C(=O)Nc2cc(F)c(F)cc2F)ccc1O |  | 87.9 µM |
| Nc1ccc2nc3n(c2c1)C(=O)c1ccccc1-3 |  | > 100 µM |
| O=c1nc(-c2ccccc2)cc(-c2ccccc2O)[nH]1 |  | > 100 µM |
| Oc1ccc(Br)cc1C=Nc1ccc(N=Cc2cc(Br)ccc2O)cc1 |  | > 100 µM |
| CCOc1ccccc1NC(=O)C(=O)Cc1nc2ccccc2s1 |  | > 100 µM |
| C=CCn1c2c(sc1=S)C(S)N=CN2 (configuration not stated) |  | > 100 µM |
| Cc1cccc(N=C2NC(=O)C(CC(=O)Nc3cccc(C)c3C)S2)c1 (configuration not stated) |  | > 100 µM |
| O=C(O)CSc1n[nH]c(Cc2ccccc2)n1 |  | > 100 µM |
| O=C1C(Cl)=C(Nc2ccccc2O)C(=O)N1Cc1ccccc1 | 28.7 µM | 62.1 µM |
| CCOc1ccccc1NC(=O)C(C#N)C1=C(Cl)C(=O)c2ccccc2C1=O (configuration not stated) | 12.3 µM | 3.84 µM and 25.8 µM |
